Source: patent publication US8552059B2, “Treatment of ischemic episodes and cerebroprotection through misoprostol” (The Board of Trustees of the Leland Stanford Junior …, priority 2009, dated 2013)

Tested on: murine middle cerebral artery occlusion-reperfusion (MCAO-RP) model of transient focal ischemia
Assay: Middle cerebral artery occlusion-reperfusion (MCAO-RP), 90 min MCAO, misoprostol
Format: in vivo, mouse
Conditions: p<0.05
Protocol: Focal cerebral ischemia was induced by 90 minutes of reversible right middle cerebral artery occlusion (MCAO) under isofluorane anesthesia followed by 22.5 hours or 72 hours of reperfusion and terminal histopathology, as previously described (McCullough et al., 2004). […] Mice were given 3 subcutaneous injections of either vehicle (hydroxypropyl-methyl cellulose; HPMC) or 1 mg/kg misoprostol in HPMC (1:100 misoprostol:HPMC; Pfizer, Groton, Conn.) (Best et al., 1995) either at onset of MCAO or 2 hours after MCAO, followed by two subsequent doses 6 and 12 hours later. In the first experiment, misoprostol was given at onset of MCAO, with the two subsequent injections given at 6 hours and at 12 hours post MCAO, and brains were analyzed 22.5 hours later. In the second experiment, treatment with the initial dose of misoprostol was delayed two hours after the onset of MCAO, and two subsequent doses were then administered at 8 hours and 14 hours after MCAO and brains were analyzed at 22.5 hours later. In the third experiment, a delayed time point was tested, and misoprostol was given 2 hours after MCAO and again at 6 and 12 hours; brains were examined at 72 hours. […] A fifth cohort of EP3−/− and +/+ mice underwent treatment with either vehicle or misoprostol at MCAO, with subsequent administration of misoprostol or vehicle at 6 and 12 hours post MCAO and brain examination 22.5 hours later.

SMILES: CCCCC(C)(O)C/C=C/[C@H]1[C@H](O)CC(=O)[C@@H]1CCCCCCC(=O)OC (mixture of isomers) [misoprostol]
- Neurological scores (1 mg/kg s.c. 2 h after MCAO, again at 6 and 12 h, 72 h, comparison value 2.6+/−0.24): 1.0+/−0.22
- Neurological scores (1 mg/kg s.c. 2 h after MCAO, then at 8 and 14 h, 24 h, comparison value 2.6+/−0.3): 1.7+/−0.3
- Neurological scores (1 mg/kg s.c. at onset of 90 min MCAO, then at 6 and 12 h, 24 h, comparison value 2.4+/−0.2): 1.8+/−0.2
